Assay results published in ChEMBL document CHEMBL5154912, “Penicillin Derivatives Inhibit the SARS-CoV-2 Main Protease by Reaction with Its Nucleophilic Cysteine” (J Med Chem, 2022).
The source made the active and inactive calls. No cut-off for these calls is given here.

Legend:
[1] = target: Replicase polyprotein 1ab (Severe acute respiratory syndrome coronavirus 2) (UniProt P0DTD1); test: Inhibition of recombinant SARS-CoV-2 Main protease at Cys145 residue by covalent modification at 10 uM incubated for 45 mins by SPE-MS analysis
[2] = target: Replicase polyprotein 1ab (Severe acute respiratory syndrome coronavirus 2) (UniProt P0DTD1); test: Inhibition of recombinant SARS-CoV-2 Main protease at Cys145 residue by covalent modification at 33 uM incubated for 45 mins by MS analysis
[3] = target: Replicase polyprotein 1ab (Severe acute respiratory syndrome coronavirus 2, UniProt P0DTD1); test: Inhibition of recombinant SARS-CoV-2 Main protease using ALNDFSNSGSDVLYQPPQTSITSAVLQ/SGFRKMAFPS-NH2 as substrate preincubated for 45 to 75 mins followed by substrate addition measured after 6 mins by SPE-MS inhibition assay
[4] = target: Replicase polyprotein 1ab (Severe acute respiratory syndrome coronavirus 2) (UniProt P0DTD1); test: Inhibition of recombinant SARS-CoV-2 Main protease at Cys145 residue by non-covalent binding incubated for 45 mins by MS analysis

CC1(C)[C@H](C(=O)OCc2ccccc2)N2C(=O)[C@@H](NC(=O)COc3ccccc3)[C@H]2S1(=O)=O
inhibition [1]: Active

C#CCOC(=O)[C@@H]1N2C(=O)[C@@H](NC(=O)COc3ccccc3)[C@H]2S(=O)(=O)C1(C)C
inhibition [2]: Active

CC1(C)[C@H](C(=O)OCOc2ccccc2)N2C(=O)[C@@H](NC(=O)COc3ccccc3)[C@H]2S1(=O)=O
IC50 [3]: 6.6 µM

CC1(C)[C@H](C(=O)OCc2ccccc2)N2C(=O)[C@@H](NC(=O)COc3ccccc3)C[C@H]2S1(=O)=O
inhibition [4]: Active
